Columns and labels:
[1] = Liquid; for mass density: 298.15 K, 101.33 kPa
[2] = refractive index (Na D-line) (dimensionless); details: 298.15 K; 101.33 kPa; Liquid; Standard Abbe refractometry

CCCCOC(C)=O [butyl ethanoate]
Details	mass density [kg/m3]	refractive index
[1]	876.02	–
[2]	–	1.3916

[1], Ebulliometric method (Recirculating still)
Details	vapor or sublimation pressure [kPa]
334.36 K	9.99
336.53 K	10.98
338.56 K	11.99
342.2 K	13.97
345.47 K	15.99
348.37 K	17.97
351.02 K	19.98
353.45 K	21.97
355.72 K	23.97
357.84 K	25.98
359.79 K	27.92
362.58 K	30.98
365.1 K	33.92
367.5 K	36.96
369.74 K	39.97
373.18 K	44.92
376.31 K	49.9
379.18 K	54.92
381.89 K	59.93
384.4 K	64.95
386.74 K	69.92
388.96 K	74.95
391.05 K	79.91
393.02 K	84.83
394.94 K	89.87
396.72 K	94.73
399.05 K	101.3

CC(=O)O [acetic acid]
Details	mass density [kg/m3]	refractive index
[1]	1043.9	–
[2]	–	1.3696

[1], Ebulliometric method (Recirculating still)
Details	vapor or sublimation pressure [kPa]
328.56 K	9.98
330.65 K	10.97
332.65 K	11.98
336.23 K	13.97
339.41 K	15.97
342.25 K	17.98
344.81 K	19.98
347.19 K	21.98
349.4 K	23.98
352.43 K	26.97
355.18 K	29.96
357.72 K	32.98
360.09 K	35.94
362.26 K	38.96
365 K	42.93
366.3 K	44.95
369.3 K	49.94
372.09 K	54.93
374.63 K	59.83
377.03 K	64.87
379.25 K	69.84
381.39 K	74.82
383.35 K	79.71
385.23 K	84.52
387.1 K	89.81
388.77 K	94.52
390.91 K	101.3

CCCCO [butan-1-ol]
Details	mass density [kg/m3]	refractive index
[1]	805.6	–
[2]	–	1.396

Details	vapor or sublimation pressure [kPa]
[1], 390.46 K	101.3

Reference: the NIST ThermoML archive (doi:10.1021/je700411p)
